Measurements reported in PMC11456916, “A screen for cell envelope stress uncovers an inhibitor of prolipoprotein diacylglyceryl transferase, Lgt, in Escherichiacoli” (iScience, 2024).

System: 356 CRISPRi constructs in E. coli ΔtolC-pore
Experiment: CRISPRi collection fitness screen with sub-inhibitory compound
Format: cell-based
Conditions: for Growth represented as mean colony biomass: 1μg/ml MAC0452936, 6ng/ml LolCDE-in-1, 250 ng/ml Vancomycin, 7 ng/ml CHIR090, n=4; for Growth, mean colony biomass (n=4): + 7 ng/ml CHIR090
Description: To that end, we screened the E. coli CRISPRi collection in the ΔtolC-pore genetic background with a sub-inhibitory concentration of MAC-0452936 and measured the fitness of all 356 CRISPRi mutants (Figure 4C and Data S4). […] To that end, we introduced either an arabinose inducible copy of lgt supplied on the pCHAP9231 plasmid[48] or the pBAD19s plasmid as a control into E. coli ΔtolC-pore and tested the potency of MAC-0452936 (Figure 4E). […] To test this hypothesis, we constructed E. coli ΔlgtΔtolC-pore with pCHAP9231[48] so that lgt expression was driven solely by arabinose from the plasmid.
For screens of the CRISPRi collection with MAC-0452936, the mobile CRISPRi collection was first conjugated into E. coli ΔtolC-pore as previously described.[30] The CRISPRi collection was then arrayed on solid agar at 1536 density using the Singer-ROTOR, such that each CRISPRi strain is arrayed in technical quadruplicate. […] The screens were conducted without CRISPRi induction, using just the 5–10% basal knockdown from the pFD152 CRISPRi plasmid. Following overnight growth, plates were imaged using high-resolution scanners (Epson Perfection v750), and colony biomass for each mutant was determined.

[1] = sub-inhibitory (¼ MIC) concentration, LB agar, basal knockdown

C[C@@H](O)[C@H](NC(=O)c1ccc(C#Cc2ccc(CN3CCOCC3)cc2)cc1)C(=O)NO [CHIR090]
Growth represented as mean colony biomass (gRNA plsB): 0.9093
Growth, mean colony biomass (n=4) (gRNA prmC): 0.9966
Growth represented as mean colony biomass (gRNA proS): 0.9867
Growth, mean colony biomass (n=4) (gRNA psd): 1.319
Growth, mean colony biomass (n=4) (gRNA pssA): 0.939
Growth, mean colony biomass (n=4) (gRNA ptsI): 1.093
Growth represented as mean colony biomass (gRNA racR): 0.9688
Growth, mean colony biomass (n=4) (gRNA rho): 0.9866
Growth represented as mean colony biomass (gRNA ribA): 0.9235
Growth represented as mean colony biomass (gRNA ribC): 0.9738
Growth, mean colony biomass (n=4) (gRNA ribD): 1.097
Growth represented as mean colony biomass (gRNA ribF): 0.9595
Growth represented as mean colony biomass (gRNA rimM): 0.9147
Growth represented as mean colony biomass (gRNA rluD): 1.0007
Growth, mean colony biomass (n=4) (gRNA rne): 1.043
Growth represented as mean colony biomass (gRNA rpe): 1.042
Growth, mean colony biomass (n=4) (gRNA rplA): 0.9782
Growth represented as mean colony biomass (gRNA rplD): 0.927
Growth represented as mean colony biomass (gRNA rplE): 1.02
Growth represented as mean colony biomass (gRNA rplJ): 0.8734
Growth represented as mean colony biomass (gRNA rplO): 0.8878
Growth, mean colony biomass (n=4) (gRNA rplP): 1.09
Growth represented as mean colony biomass (gRNA rplQ): 1.099
Growth represented as mean colony biomass (gRNA rplS): 0.9537
Growth, mean colony biomass (n=4) (gRNA rplV): 1.004
Growth, mean colony biomass (n=4) (gRNA rplX): 1.052
Growth represented as mean colony biomass (gRNA rplY): 1.0779
Growth, mean colony biomass (n=4) (gRNA rpmC): 0.9906
Growth represented as mean colony biomass (gRNA rpmH): 1.001
Growth represented as mean colony biomass (gRNA rpmI): 0.9513
Growth, mean colony biomass (n=4) (gRNA rpoC): 1.121
Growth, mean colony biomass (n=4) (gRNA rpoE): 1.013
Growth represented as mean colony biomass (gRNA rpoH): 1.038
Growth, mean colony biomass (n=4) (gRNA rpsC): 1.084
Growth, mean colony biomass (n=4) (gRNA rpsD): 1.134
Growth represented as mean colony biomass (gRNA rpsE): 0.9264
Growth represented as mean colony biomass (gRNA rpsF): 1.096
Growth, mean colony biomass (n=4) (gRNA rpsG): 0.9816
Growth represented as mean colony biomass (gRNA rpsH): 0.9044
Growth, mean colony biomass (n=4) (gRNA rpsK): 1.022
Growth, mean colony biomass (n=4) (gRNA rpsL): 1.049
Growth, mean colony biomass (n=4) (gRNA rpsM): 0.9866
Growth, mean colony biomass (n=4) (gRNA rpsR): 1.0423
Growth, mean colony biomass (n=4) (gRNA rpsT): 0.8858
Growth represented as mean colony biomass (gRNA rsgA): 0.9517
Growth represented as mean colony biomass (gRNA safA): 1.0001
Growth, mean colony biomass (n=4) (gRNA secA): 1.136
Growth represented as mean colony biomass (gRNA secY): 1.007
Growth represented as mean colony biomass (gRNA serS): 1.071
Growth represented as mean colony biomass (gRNA ssb): 1.053
Growth represented as mean colony biomass (gRNA sucA): 0.9406
Growth, mean colony biomass (n=4) (gRNA suhB): 1.008
Growth represented as mean colony biomass (gRNA tilS): 1.04
Growth represented as mean colony biomass (gRNA tonB): 0.9801
Growth represented as mean colony biomass (gRNA trmD): 0.9934
Growth represented as mean colony biomass (gRNA tsaB): 1.008
Growth represented as mean colony biomass (gRNA tsaD): 0.9494
Growth, mean colony biomass (n=4) (gRNA tsaE): 1.05
Growth represented as mean colony biomass (gRNA tsf): 1.069
Growth represented as mean colony biomass (gRNA tusE): 1.0146
Growth represented as mean colony biomass (gRNA tyrS): 0.993
Growth represented as mean colony biomass (gRNA ubiB): 0.9982
Growth represented as mean colony biomass (gRNA ubiD): 0.963
Growth, mean colony biomass (n=4) (gRNA waaA): 1.006
Growth represented as mean colony biomass (gRNA ydaS): 0.976
Growth represented as mean colony biomass (gRNA ydcD): 0.9913
Growth represented as mean colony biomass (gRNA ydhL): 0.9285
Growth, mean colony biomass (n=4) (gRNA yedN): 0.9909
Growth represented as mean colony biomass (gRNA yejM): 0.9171
Growth represented as mean colony biomass (gRNA yffS): 1.036
Growth represented as mean colony biomass (gRNA ygeF): 1.069
Growth, mean colony biomass (n=4) (gRNA ygeN): 0.9546
Growth represented as mean colony biomass (gRNA yidC): 0.9824
Growth represented as mean colony biomass (gRNA ymfE): 0.9789
Growth represented as mean colony biomass (gRNA ymiB): 1.048
Growth, mean colony biomass (n=4) (gRNA yqeL): 1.42
Growth represented as mean colony biomass (gRNA yqgF): 1.058
Growth, mean colony biomass (n=4) (gRNA zipA): 1.877
growth defect of CRISPRi strains for the compound's molecular target (LolCDE complex and LpxC, respectively) [1]: strongest growth defect
growth defect of the lgt CRISPRi mutant in the presence of compound [1]: did not demonstrate a growth defect
